# Measurements as given in patent USRE48711E1, “Apoptosis signal-regulating kinase inhibitors” (Gilead Sciences, Inc., priority 2009, dated 2021).
# Target: ASK1 (Apoptosis Signal-Regulating Kinase 1) (Homo sapiens (Human), UniProt Q99683)
# Assay: ASK1 (Apoptosis Signal-Regulating Kinase 1) TR-FRET Kinase Assay (Biochemical IC50)
# Conditions: not given
# Sequence of ASK1 (Apoptosis Signal-Regulating Kinase 1) (Q99683 649-946): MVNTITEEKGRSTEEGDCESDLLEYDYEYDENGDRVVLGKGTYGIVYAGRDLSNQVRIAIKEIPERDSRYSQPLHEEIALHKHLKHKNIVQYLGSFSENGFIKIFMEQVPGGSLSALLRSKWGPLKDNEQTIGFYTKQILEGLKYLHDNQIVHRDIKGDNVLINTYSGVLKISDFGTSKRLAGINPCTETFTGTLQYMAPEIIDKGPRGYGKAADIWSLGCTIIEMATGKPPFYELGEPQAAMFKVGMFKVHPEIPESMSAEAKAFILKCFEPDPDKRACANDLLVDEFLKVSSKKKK
row,SMILES,IC50
1,"C[C@@H](O)Cn1cnnc1-c1cccc(NC(=O)c2cc(-c3cccnc3)ccn2)c1 [Example 34, (R)-N-(3-(4-(2-hydroxypropyl)-4H-1,2,4-triazol-3-yl)phenyl)-3,4′-bipyridine-2′-carboxamide]",0.195 µM

# Same assay, conditions: TR-FRET, biotin-MBP substrate, 20 min pre-incubation, ATP added as 300 μM solution
row,SMILES,IC50
1,"O=C(Nc1cccc(-c2nncn2C2CC2)n1)c1cc(-n2cnc(-c3ccccc3)c2)ccn1 [Example 113, N-(6-(4-cyclopropyl-4H-1,2,4-triazol-3-yl)pyridin-2-yl)-4-(4-phenyl-1H-imidazol-1-yl)picolinamide]",0.01 µM
2,"O=C(Nc1cccc(-c2nncn2C2CC2)n1)c1cc(-n2cnc3c2CCNC3C(F)(F)F)ccn1 (centres unmarked) [Example 195, N-(6-(4-cyclopropyl-4H-1,2,4-triazol-3-yl)pyridin-2-yl)-4-(4-(trifluoromethyl)-4,5,6,7-tetrahydro-1H-imidazo[4,5-c]pyridin-1-yl)picolinamide]",0.008 µM
3,"O=C(Nc1cccc(-c2nncn2C2CC2)n1)c1cncc(-c2ccc(C3CC3)nc2)c1 [Example 259, 6′-cyclopropyl-N-(6-(4-cyclopropyl-4H-1,2,4-triazol-3-yl)pyridin-2-yl)-3,3′-bipyridine-5-carboxamide]",0.008 µM
4,"O=C(Nc1cccc(-c2nncn2C2CC2)c1)c1cc(-c2cnccn2)ccn1 [Example 87, N-(3-(4-cyclopropyl-4H-1,2,4-triazol-3-yl)phenyl)-4-(pyrazin-2-yl)picolinamide]",0.069 µM
5,"Cn1cnnc1-c1cccc(NC(=O)c2cncc(-c3ccccc3)c2)c1 [Example 2, N-(3-(4-methyl-4H-1,2,4-triazol-3-yl)phenyl)-5-phenylnicotinamide]",5.59 µM
6,"CN1CCc2c(ncn2-c2ccnc(C(=O)Nc3cccc(-c4nncn4C4CC4)c3)c2)C1C(F)(F)F (centres unmarked) [Example 257, N-(3-(4-cyclopropyl-4H-1,2,4-triazol-3-yl)phenyl)-4-(5-methyl-4-(trifluoromethyl)-4,5,6,7-tetrahydro-1H-imidazo[4,5-c]pyridin-1-yl)picolinamide]",0.006 µM
7,"O=C(Nc1cccc(-c2nncn2C2CC2c2ccccc2)c1)c1cc(-c2ccc(C3CC3)nc2)ccn1 (centres unmarked) [Example 267, 6-cyclopropyl-N-(3-(4-(2-phenylcyclopropyl)-4H-1,2,4-triazol-3-yl)phenyl)-3,4′-bipyridine-2′-carboxamide]",0.425 µM
8,"O=C(Nc1cccc(-c2nncn2C2CC2)c1)c1cc(-c2ccc(NC3CC3)nc2)ccn1 [Example 120, N-(3-(4-cyclopropyl-4H-1,2,4-triazol-3-yl)phenyl)-6-(cyclopropylamino)-3,4′-bipyridine-2′-carboxamide]",0.006 µM
9,"Nc1ncc(-c2ccnc(C(=O)Nc3cccc(-c4nncn4C4CC4)c3)c2)cn1 [Example 25, 4-(2-aminopyrimidin-5-yl)-N-(3-(4-cyclopropyl-4H-1,2,4-triazol-3-yl)phenyl)picolinamide]",0.013 µM
10,"CCc1cc(-c2ccnc(C(=O)Nc3cccc(-c4nncn4C4CC4)c3)c2)cnc1CC [Example 141, N-(3-(4-cyclopropyl-4H-1,2,4-triazol-3-yl)phenyl)-5,6-diethyl-3,4′-bipyridine-2′-carboxamide]",0.013 µM
11,"O=C(Nc1cccc(-c2nncn2C2CC2)c1)c1cc(-c2cncc(F)c2)ccn1 [Example 60, N-(3-(4-cyclopropyl-4H-1,2,4-triazol-3-yl)phenyl)-5-fluoro-3,4′-bipyridine-2′-carboxamide]",0.023 µM
12,"CCNc1ccc(-c2ccnc(C(=O)Nc3cccc(-c4nncn4C4CC4)c3)c2)cn1 [Example 119, N-(3-(4-cyclopropyl-4H-1,2,4-triazo1-3-yl)phenyl)-6-(ethylamino)-3,4′-bipyridine-2′-carboxamide]",0.009 µM
13,"Cn1cnc2cc(-c3ccnc(C(=O)Nc4cccc(-c5nncn5C5CC5)c4)c3)cnc21 [Example 143, N-(3-(4-cyclopropyl-4H-1,2,4-triazol-3-yl)phenyl)-4-(3-methyl-3H-imidazo[4,5-b]pyridin-6-yl)picolinamide]",0.015 µM
14,"O=C(Nc1cccc(-c2nncn2C2CC2)c1)c1cc(-c2cnc3c(c2)CNCC3)ccn1 [Example 154, N-(3-(4-cyclopropyl-4H-1,2,4-triazol-3-yl)phenyl)-4-(5,6,7,8-tetrahydro-1,6-naphthyridin-3-yl)picolinamide]",0.034 µM
15,"NS(=O)(=O)c1ccc(-c2ccnc(C(=O)Nc3cccc(-c4nncn4C4CC4)c3)c2)cc1 [Example 97, N-(3-(4-cyclopropyl-4H-1,2,4-triazol-3-yl)phenyl)-4-(4-sulfamoylphenyl)picolinamide]",0.081 µM
16,"Cc1ncn(-c2ccnc(C(=O)Nc3cccc(-c4nncn4C4CC4)c3)c2)c1C [Example 43, N-(3-(4-cyclopropyl-4H-1,2,4-triazol-3-yl)phenyl)-4-(4,5-dimethyl-1H-imidazol-1-yl)picolinamide]",0.008 µM
17,"CCCc1ccc(-c2ccnc(C(=O)Nc3cccc(-c4nncn4C4CC4)c3)c2)cn1 [Example 114, N-(3-(4-cyclopropyl-4H-1,2,4-triazol-3-yl)phenyl)-6-propyl-3,4′-bipyridine-2′-carboxamide]",0.005 µM
18,"O=C(Nc1cccc(-c2nncn2C2CC2)c1)c1cc(-c2cnc3[nH]ccc3c2)ccn1 [Example 92, N-(3-(4-cyclopropyl-4H-1,2,4-triazol-3-yl)phenyl)-4-(1H-pyrrolo[2,3-b]pyridin-5-yl)picolinamide]",0.013 µM
19,"O=C(Nc1cccc(-c2nncn2C2CC2)n1)c1cc(-n2cnc(C3CC3)c2)ccn1 [Example 170, 4-(4-cyclopropyl-1H-imidazol-1-yl)-N-(6-(4-cyclopropyl-4H-1,2,4-triazol-3-yl)pyridin-2-yl)picolinamide]",0.007 µM
20,"O=C(Nc1cccc(-c2nncn2C2CC2)c1)c1cc(-c2nnc(C3CC3)s2)ccn1 [Example 270, 4-(5-cyclopropyl-1,3,4-thiadiazol-2-yl)-N-(3-(4-cyclopropyl-4H-1,2,4-triazol-3-yl)phenyl)picolinamide]",0.107 µM
21,"CC(C)n1cnnc1-c1cccc(NC(=O)c2cc(-n3cnc(C4CC4)c3)ccn2)c1 [Example 184, 4-(4-cyclopropyl-1H-imidazol-1-yl)-N-(3-(4-isopropyl-4H-1,2,4-triazol-3-yl)phenyl)picolinamide]",0.02 µM
22,"O=C(Nc1cccc(-c2nncn2C2CC2)c1)c1cccc(-c2ccc(C3CC3)nc2)n1 [Example 263, 6′-cyclopropyl-N-(3-(4-cyclopropyl-4H-1,2,4-triazol-3-yl)phenyl)-2,3′-bipyridine-6-carboxamide]",3.6 µM
23,"O=C(Nc1cccc(-c2nncn2C2CC2)c1)c1cc(-c2ccc(C(F)(F)F)nc2)ccn1 [Example 52, N-(3-(4-cyclopropyl-4H-1,2,4-triazol-3-yl)phenyl)-6-(trifluoromethyl)-3,4′-bipyridine-2′-carboxamide]",0.012 µM
24,"C[C@@H](C1CC1)n1cnnc1-c1cccc(NC(=O)c2cc(-c3ccc(C4CC4)nc3)ccn2)c1 [Example 230, (S)-6-cyclopropyl-N-(3-(4-(1-cyclopropylethyl)-4H-1,2,4-triazol-3-yl)phenyl)-3,4′-bipyridine-2′-carboxamide]",0.058 µM
25,"CCN1CCN(c2ccnc(C(=O)Nc3cccc(-c4nncn4C4CC4)c3)c2)CC1=O [Example 177, N-(3-(4-cyclopropyl-4H-1,2,4-triazol-3-yl)phenyl)-4-(4-ethyl-3-oxopiperazin-1-yl)picolinamide]",0.047 µM
